Data: patent US4035566A, “N-trifluoroacetyladriamycin-14-alkanoates and therapeutic compositions containing same” (Sidney Farber Cancer Institute, Inc., priority 1975, dated 1977)
Like-named read-outs stand apart in the source and are kept apart here.

What was measured:
CCRF-CEM cell line = test: in vitro growth inhibition of CCRF-CEM cell line in culture (Foley and Lazarus procedure); type: cell-based, child; settings: Homo sapiens, read-out: ID50 (dose required to inhibit growth of the cultures by 50% relative to control cultures)
Method: (§1) The toxicity and therapeutic effectiveness of the new compounds and active agents of the present invention are shown by in vitro assays and by in vivo evaluations in mice. The in vitro assays measure the growth inhibiting activity of the materials against the CCRF-CEM cell line in culture. The cell line was derived from the peripheral blood and a child with lymphoblastic leukemia as described by Foley et al., Cancer, Volume 18, page 522 et seq. (1965), and the assays were carried out by the procedure of Foley and Lazarus, Biochem. Pharmacol., Volume 16, pages 659 et seq. (1967), the results being reported in terms of the dose in micromoles per liter required to inhibit growth of the cultures by 50% relative to control cultures to which no drug had been added (ID50). The in vivo evaluations were made by preparing a 0.2 to 0.7% by weight solution of the active agent in a 10% by volume aqueous solution of polyoxyethylene sorbitan monooleate (polysorbate 80) as a carrier and injecting the dosage intraperitoneally. The evaluations were made of the antitumor activity against the murine P 388 and murine L 1210 leukemias in BDF1 male mice according to standard National Cancer Institute protocols as set forth by Geran et al., Cancer Chemotherap. Rep., Part 3, Volume 3, pages 1 et seq. (1972), except that a qd 1-4 schedule was used in place of qd 1-9 in order to conserve materials. Evaluations were also made of the antitumor activity against the Ridgway osteogenic sarcoma, a solid tumor, in AKD2 /F1 mice, according to the procedures described in the report by G. J. D'Angio, C. L. Maddock, S. Farber, and B. L. Brown, Cancer Research, 25, 1002-1007 (1965).
The following table summarizes the inhibitory activity of various N-trifluoroacetyladriamycin-14-alkanoates as well as other materials when tested in vitro as described in the paragraphs preceding Example 1 above.

murine P 388 leukemia = test: in vivo antitumor activity against murine P 388 leukemia (Geran et al. procedure); set-up: species or system BDF1 male mice; settings: Table II, i.p., qd 1-4; for Survivors 60da: optimal dose mg/kg: acetate 40, isobutyrate 40, valerate 40, caproate 60, caprylate 60; for MILS (Median Increase in Life Span Compared with Untreated Mice) / Survivors 30da: optimal dose mg/kg: adriamycin 4.0, daunomycin 2.0, acetate 40, isobutyrate 40, valerate 40, caproate 60, caprylate 60
Method: as §1
(§2) Optimal dosage was determined by testing doses which were at several multiples of 10 milligrams/kilogram of body weight and the optimal dose was used for further tests. Some effectiveness can be observed at dosages ranging from 20 to 70 milligrams/kilogram of body weight, depending upon the particular ester employed.
The following table summarizes the in vivo antitumor activity against murine P 388 leukemia tested by the Geran et al. procedure as exampled above: […]

murine L 1210 leukemia [1] = test: in vivo antitumor activity against murine L 1210 leukemia (Geran et al. procedure); set-up: species or system BDF1 male mice; settings: for MILS / Survivors 30da / Survivors 60da: Table III, qd 1-4
Method: as §1, §2
The murine L 1210 leukemia is generally poorly responsive to chemotherapy. […] The following table summarizes the results of three separate in vivo tests of N-trifluoroacetyladriamycin-14-valerate against murine L 1210 leukemia following the Geran et al. procedure as described above: […]

[2] = test system: murine Ridgway osteogenic sarcoma; test: in vivo antitumor activity against murine Ridgway osteogenic sarcoma (D'Angio et al. procedure); set-up: species or system AKD2 /F1 mice; settings: for MILS / Median Survival: Table IV, days 16-19
Method: as §1
The following table summarizes the in vivo antitumor activity of N-trifluoroacetyladriamycin-14-valerate against the murine Ridgway osteogenic sarcoma following the D'Angio et at. procedure as described above:
*Therapy was started on day 16 when the intramuscularly implanted tumor was palpable. Seven mice were used in each group, and all compounds were administered intraperitoneally.
Complete remission in this system is defined as the absence of palpable tumor.

murine L 1210 leukemia [3] = settings: background statement; cited from earlier work
malignant tumors = settings: cited from earlier work; for clinical effectiveness: certain malignant tumors, e.g. induction of remission in acute leukemia
mice = test: toxicity in mice in the in vivo antitumor tests; settings: P 388 test conditions, qd 1-4; for toxicity: dose of 60 mg/kg i.p.
Method: as §1, §2

[4] = toxicity in mice in the in vivo antitumor tests; settings: mouse, in vivo, ip; L1210 test, qd 1-4 schedule; read-out: doses above which toxicity displayed
Method: as §1, §2

[5] = Ridgway tumor, complete remission = absence of palpable tumor
[6] = L1210 leukemia, same conditions as Table III

## COc1cccc2c1C(=O)c1c(O)c3c(c(O)c1C2=O)C[C@@](O)(C(=O)COC(C)=O)C[C@@H]3O[C@H]1C[C@H](NC(=O)C(F)(F)F)[C@H](O)[C@H](C)O1 [Acetate, N-trifluoroacetyladriamycin-14-acetate]
CCRF-CEM cell line; CCRF-CEM cells, Table I
  IC50: 200 nM
Murine P 388 leukemia
  Survivors 60da: 0/5
  MILS (Median Increase in Life Span Compared with Untreated Mice): 173%
  Survivors 30da: 2/5

## COc1cccc2c1C(=O)c1c(O)c3c(c(O)c1C2=O)C[C@@](O)(C(=O)CO)C[C@@H]3O[C@H]1C[C@H](N)[C@H](O)[C@H](C)O1 [Adriamycin]
CCRF-CEM cell line; CCRF-CEM
  IC50: 66 nM
Murine P 388 leukemia
  MILS (Median Increase in Life Span Compared with Untreated Mice): 132%
  Survivors 30da: 0/6
Murine L 1210 leukemia [1]; first test, 4.0 mg/kg i.p.
  MILS: 45%
  Survivors 30da: 0/5
Murine L 1210 leukemia [1]; second test, 4.0 mg/kg i.p.
  MILS: 54%
  Survivors 30da: 1/5
  Survivors 60da: 0/5
Murine L 1210 leukemia [1]; third test, 4.0 mg/kg i.p.
  MILS: 42%
  Survivors 30da: 0/7
[2]; 3.0 mg/kg i.p.
  MILS: 40%
  Median Survival: 51.0 days
Murine L 1210 leukemia [3]
  effectiveness in prolonging survival of mice bearing L 1210 leukemia (general statement): only moderately effective
Malignant tumors
  clinical effectiveness: effective clinically against certain malignant tumors
Malignant tumors; limiting long-term use
  toxicities in chemotherapy: a variety of toxicities which limit the effectiveness of the compounds
Malignant tumors; solid tumors
  clinical efficacy against certain solid tumors: has shown clinical efficacy against certain solid tumors
mice; i.p.
  dose at and above which toxic: ≥ 4 mg/kg

## CCCCCCCCCC(=O)OCC(=O)[C@]1(O)Cc2c(O)c3c(c(O)c2[C@@H](O[C@H]2C[C@H](NC(=O)C(F)(F)F)[C@H](O)[C@H](C)O2)C1)C(=O)c1c(OC)cccc1C3=O [Caprate, N-Trifluoroacetyladriamycin-14-caprate]
CCRF-CEM cell line; CCRF-CEM cells, Table I
  IC50: 390 nM

## CCCCCC(=O)OCC(=O)[C@]1(O)Cc2c(O)c3c(c(O)c2[C@@H](O[C@H]2C[C@H](NC(=O)C(F)(F)F)[C@H](O)[C@H](C)O2)C1)C(=O)c1c(OC)cccc1C3=O [Caproate, N-Trifluoroacetyladriamycin-14-caproate]
CCRF-CEM cell line; CCRF-CEM cells, Table I
  IC50: 330 nM
Murine P 388 leukemia
  Survivors 60da: 1/5
  MILS (Median Increase in Life Span Compared with Untreated Mice): 271%
  Survivors 30da: 5/5
mice
  toxicity: no toxicity was observed

## CCCCCCCC(=O)OCC(=O)[C@]1(O)Cc2c(O)c3c(c(O)c2[C@@H](O[C@H]2C[C@H](NC(=O)C(F)(F)F)[C@H](O)[C@H](C)O2)C1)C(=O)c1c(OC)cccc1C3=O [Caprylate, N-Trifluoroacetyladriamycin-14-caprylate]
CCRF-CEM cell line; CCRF-CEM cells, Table I
  IC50: 360 nM
Murine P 388 leukemia
  Survivors 60da: 1/5
  MILS (Median Increase in Life Span Compared with Untreated Mice): 243%
  Survivors 30da: 5/5
mice
  toxicity: no toxicity was observed

## COc1cccc2c1C(=O)c1c(O)c3c(c(O)c1C2=O)C[C@@](O)(C(C)=O)C[C@@H]3O[C@H]1C[C@H](N)[C@H](O)[C@H](C)O1 [Daunomycin, reference compound]
CCRF-CEM cell line; CCRF-CEM
  IC50: 35 nM
Murine P 388 leukemia
  MILS (Median Increase in Life Span Compared with Untreated Mice): 91%
  Survivors 30da: 0/6
Murine L 1210 leukemia [3]
  effectiveness in prolonging survival of mice bearing L 1210 leukemia (general statement): much less so
Malignant tumors
  clinical effectiveness: effective clinically against certain malignant tumors
Malignant tumors; in vivo
  toxicities in chemotherapy: a variety of toxicities which limit the effectiveness of the compounds

## COc1cccc2c1C(=O)c1c(O)c3c(c(O)c1C2=O)C[C@@](O)(C(=O)COC(=O)C(C)C)C[C@@H]3O[C@H]1C[C@H](NC(=O)C(F)(F)F)[C@H](O)[C@H](C)O1 [Isobutyrate, N-Trifluoroacetyladriamycin-14-isobutyrate]
CCRF-CEM cell line; CCRF-CEM cells, Table I
  IC50: 280 nM
Murine P 388 leukemia
  Survivors 60da: 1/5
  MILS (Median Increase in Life Span Compared with Untreated Mice): 150%
  Survivors 30da: 3/5

## CCCCC(=O)OCC(=O)[C@]1(O)Cc2c(O)c3c(c(O)c2[C@@H](O[C@H]2C[C@H](NC(=O)C(F)(F)F)[C@H](O)[C@H](C)O2)C1)C(=O)c1c(OC)cccc1C3=O [N-Trifluoroacetyladriamycin-14-valerate]
CCRF-CEM cell line; CCRF-CEM cells, Table I
  IC50: 240 nM
Murine P 388 leukemia
  Survivors 60da: 3/5
  MILS (Median Increase in Life Span Compared with Untreated Mice): 429%
  Survivors 30da: 4/5
Murine L 1210 leukemia [1]; first test, 60.0 mg/kg i.p.
  MILS: > 445%
  Survivors 30da: 4/5
  Survivors 60da: 4/5
Murine L 1210 leukemia [1]; first test, 70.0 mg/kg i.p.
  MILS: > 445%
  Survivors 30da: 4/5
  Survivors 60da: 4/5
Murine L 1210 leukemia [1]; second test, 50.0 mg/kg i.p.
  MILS: > 445%
  Survivors 30da: 4/7
  Survivors 60da: 4/7
Murine L 1210 leukemia [1]; second test, 60.0 mg/kg i.p.
  MILS: > 445%
  Survivors 30da: 3/6
  Survivors 60da: 3/6
Murine L 1210 leukemia [1]; third test, 50.0 mg/kg i.p.
  MILS: > 400%
  Survivors 30da: 5/7
  Survivors 60da: 5/7
Murine L 1210 leukemia [1]; third test, 60.0 mg/kg i.p.
  MILS: > 400%
  Survivors 30da: 6/7
  Survivors 60da: 6/7
[2]; [5]
  gross number of complete remissions compared with adriamycin: the gross number of complete remissions was greater
  median duration of complete remission compared with adriamycin: the median duration of complete remission was longer
[2]; 50.0 mg/kg i.p.
  MILS: 130%
  Median Survival: 84.0 days
[2]; 60.0 mg/kg i.p.
  MILS: 122%
  Median Survival: 81.0 days

## COc1cccc2c1C(=O)c1c(O)c3c(c(O)c1C2=O)C[C@@](O)(C(=O)COC(=O)C(C)(C)C)C[C@@H]3O[C@H]1C[C@H](NC(=O)C(F)(F)F)[C@H](O)[C@H](C)O1 [Pivalate, N-Trifluoroacetyladriamycin-14-pivalate]
CCRF-CEM cell line; CCRF-CEM cells, Table I
  IC50: 590 nM

## CCC(=O)OCC(=O)[C@]1(O)Cc2c(O)c3c(c(O)c2[C@@H](O[C@H]2C[C@H](NC(=O)C(F)(F)F)[C@H](O)[C@H](C)O2)C1)C(=O)c1c(OC)cccc1C3=O [Propionate, N-Trifluoroacetyladriamycin-14-propionate]
CCRF-CEM cell line; CCRF-CEM cells, Table I
  IC50: 300 nM

## CCCCC(=O)OCC(=O)[C@]1(O)Cc2c(O)c3c(c(O)c2[C@@H](O[C@H]2C[C@H](N)[C@H](O)[C@H](C)O2)C1)C(=O)c1c(OC)cccc1C3=O [adriamycin-14-valerate, reference compound]
Murine L 1210 leukemia [1]; [6]
  effectiveness in prolonging survival of tumor-bearing mice compared with daunomycin: no more effective than daunomycin
  survivors after 30 days: no survivors after 30 days
[4]
  MTD: > 4 mg/kg
